Experiment: solvent given as SMILES

In the case of `c1ccc(C2c3ccc4ccc5ccccc5c4c3-c3c2ccc2ccc4ccccc4c32)cc1`, the emission maximum (in ClCCl) is reported as 425 nm.
In the case of `C(=C\c1ccncn1)/c1ccc(N(c2ccccc2)c2ccccc2)cc1`, the emission maximum (in C1CCOC1) is reported as 496 nm, the emission maximum (in CC#N) is reported as 545 nm and the emission maximum (in CCCCCCC) is reported as 443 nm. It also gave an emission maximum (in CS(C)=O) of 550 nm and an emission maximum (in ClCCl) of 526 nm.
For `CC1(C)c2ccccc2N(c2ccc(-c3ccc4c(c3)c3cc(-c5ccc(N6c7ccccc7C(C)(C)c7ccccc76)cc5)ccc3c3nc(C#N)c(C#N)nc43)cc2)c2ccccc21`, the emission maximum (in C1COCCO1) was 668.71 nm, the emission maximum (in CCCCCC) was 507.36 nm and the emission maximum (in Cc1ccccc1) was 612 nm. The emission maximum (in O=P(c1ccccc1)(c1ccccc1)c1cccc(-c2cc(-n3c4ccccc4c4ccccc43)cc(-n3c4ccccc4c4ccccc43)c2)n1) was 594 nm.
With `COC(=O)C1=C(C(=O)OC)C2(c3ccccc3-c3ccc([N+](=O)[O-])cc32)C2(/C=C/c3ccccc3)c3cc(OC)c(OC)cc3CCN12` (configuration not stated) the emission maximum (in ClCCl) was 510 nm.
`O=c1oc2cccc3c4cccc5ccc6c7cc(F)ccc7c1c(c23)c6c54` gave an emission maximum (in C1CCOC1) of 424 nm.
Work on `CCC1(CC)c2ccccc2-c2ccc(C#Cc3cc(C#Cc4ccc5c(c4)C(CC)(CC)c4ccccc4-5)c4ccc5c(C#Cc6ccc7c(c6)C(CC)(CC)c6ccccc6-7)cc(C#Cc6ccc7c(c6)C(CC)(CC)c6ccccc6-7)c6ccc3c4c65)cc21` yielded an emission maximum (in Cc1ccccc1) of 549 nm.
Compound `[NH3+]c1ccc2ccc(O)cc2c1` has an emission maximum (in O) of 357 nm.
With `CC(C)(C)c1ccc(-c2nc3c4ccc(-c5ccccc5)cc4c4cc(-c5ccccc5)ccc4c3n2-c2ccc(C(C)(C)C)cc2)cc1` the emission maximum (in C1CCOC1) was 389 nm, the emission maximum (in C1COCCO1) was 389 nm and the emission maximum (in CC#N) was 391 nm. It also gave an emission maximum (in CCCCCC) of 385 nm, an emission maximum (in CCCCOCCCC) of 386 nm and an emission maximum (in CCN(CC)CC) of 386 nm. For the same compound, the emission maximum (in CCOC(C)=O) was 388 nm, the emission maximum (in CCOCC) was 386 nm and the emission maximum (in CN(C)C=O) was 392 nm. The emission maximum (in Cc1ccccc1) was 388 nm, the emission maximum (in ClC=C(Cl)Cl) was 389 nm and the emission maximum (in ClCCl) was 390 nm.
With `C1=C2C3=C(C4=[N+]2[B-]2(Oc5ccccc54)Oc4ccccc4-c4c5c(c1n42)C1CCC5CC1)C1CCC3CC1` (configuration not stated) the emission maximum (in ClCCl) was 645 nm.
For `C[C@]12C(=O)NC(=O)N([C@H]3CC(O)[C@@H](CO)O3)[C@H]1[C@H]1Oc3cc4oc(=O)ccc4cc3[C@H]12` (some centres not stated), the emission maximum (in CC(C)O) was 428 nm, the emission maximum (in CCO) was 432 nm and the emission maximum (in CCOCC) was 410 nm. The emission maximum (in CO) was 446 nm and the emission maximum (in O) was 465 nm.
Compound `N[C@@H](Cn1nnc2cc(-c3ccc4ccccc4c3)ccc21)C(=O)O` has an emission maximum (in CO) of 417 nm.
`c1cc2ccc3ccc(-c4ccc(-c5nnc(-c6ccc(-c7nnc(-c8ccc(-c9ccc%10ccc%11cccc%12ccc9c%10c%11%12)s8)o7)cc6)o5)s4)c4ccc(c1)c2c34` gave an emission maximum (in C1COCCO1) of 373 nm, an emission maximum (in CC#N) of 398 nm and an emission maximum (in CC(=O)N(C)C) of 373 nm. It also gave an emission maximum (in CCCCCCCCCCO) of 418 nm, an emission maximum (in CCCCCCCCO) of 393 nm and an emission maximum (in CCCCCCO) of 394 nm. It also gave an emission maximum (in CCCCO) of 393 nm, an emission maximum (in CCO) of 393 nm and an emission maximum (in CS(C)=O) of 374 nm. It also gave an emission maximum (in Cc1ccccc1) of 419 nm and an emission maximum (in ClC(Cl)Cl) of 373 nm.
With `COc1ccccc1C1=[N+]2C(=Cc3c4cc5ccccc5cc4c(-c4ccccc4OC)n3[B-]2(F)F)c2cc3ccccc3cc21` the emission maximum (in C1CCOC1) was 760 nm.
For `CC[n+]1c(C=C2C(=O)C(C=C3N(C)c4ccc(Cl)cc4C3(C)C)=C2[O-])sc2ccccc21`, the emission maximum (in CO) was 653 nm and the emission maximum (in ClC(Cl)Cl) was 664 nm.
`CCOC(=O)C1=C(N)n2c(=O)c3ccccc3c(=O)n2C1c1ccc(C)cc1` (configuration not stated) gave an emission maximum (in CS(C)=O) of 517 nm.
With `O=S(=O)([O-])c1ccc(O)c2ccccc12` the emission maximum (in C1COCCO1) was 357 nm, the emission maximum (in CC#N) was 358 nm and the emission maximum (in CC(C)O) was 360 nm. For the same compound, the emission maximum (in CCCCO) was 361 nm, the emission maximum (in CCO) was 360 nm and the emission maximum (in CCOC(C)=O) was 354 nm. The emission maximum (in CN(C)C=O) was 366 nm, the emission maximum (in CO) was 361 nm and the emission maximum (in CS(C)=O) was 370 nm.
Work on `Clc1nc(Nc2ccccc2)nc(Nc2ccc3c4cccc5cccc(c6cccc2c63)c54)n1` yielded an emission maximum (in C1COCCO1) of 478 nm, an emission maximum (in CC#N) of 477 nm and an emission maximum (in CCCCOCCCC) of 476 nm. For the same compound, the emission maximum (in CCOC(C)=O) was 475 nm.
With `Cc1cccc(C)c1-c1cc2c(C)c3c4cc5nc6cc7c(cc6nc5cc4c3c(C)c2cc1-c1c(C)cccc1C)c1c(C)c2cc(-c3c(C)cccc3C)c(-c3c(C)cccc3C)cc2c(C)c71` the emission maximum (in ClC(Cl)Cl) was 523 nm.
With `N#Cc1cccc2[nH]ccc12` the emission maximum (in C1CCOC1) was 371 nm, the emission maximum (in C1COCCO1) was 369 nm and the emission maximum (in CC#N) was 380 nm. It also gave an emission maximum (in CC(C)O) of 385 nm, an emission maximum (in CCO) of 387 nm and an emission maximum (in CO) of 390 nm. It also gave an emission maximum (in CS(C)=O) of 392 nm, an emission maximum (in O) of 405 nm and an emission maximum (in OCC(F)(F)F) of 394 nm.
`c1ccc(/C(=C(\c2ccccc2)c2cc(-c3ccccc3)ccc2-c2ccc(-c3ccccc3)cc2)c2cc(-c3ccccc3)ccc2-c2ccc(-c3ccccc3)cc2)cc1` showed an emission maximum (in C1CCOC1) of 494 nm.
`F[B-]1(F)N(c2ccccc2)C=Cc2cccc[n+]21` showed an emission maximum (in C1CCCCC1) of 543 nm, an emission maximum (in C1CCOC1) of 541 nm and an emission maximum (in CC#N) of 555 nm. It also gave an emission maximum (in CCO) of 553 nm and an emission maximum (in O) of 539 nm.

Source: the Deep4Chem optical property database
